Source: ChEMBL document CHEMBL1201862, “PubChem BioAssay data set” (2004)
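Five concentrations, 48 hours, 96-well plates. At the GI50, growth is halved.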 The source made the active and inactive calls. No stated cut-off is given here; in the data, active = GI50 up to about 1.1 µM and inactive = higher.

How the values were obtained:
Assay in all cases: NCI-60 cell line screen, 48 h
UACC-257 = test system: UACC-257
MCF7 = test system: MCF7
T47D = test system: T47D

Measured: GI50

CC(=O)Nc1ccc(Sc2nnc(NC(C)=O)s2)cc1
inactive: UACC-257 > 100 µM | MCF7 > 100 µM | T47D > 100 µM
